Experiment [1] deals with Rhipicephalus (Boophilus) microplus. In words: In vitro injection test with Rhipicephalus (Boophilus) microplus (BOOPMI Inj). The conditions noted are these: 168 h, laid fertile eggs after 7 days, read-out: acaricidal activity; for pest or weed control at 0.0008 mg: dose 0.8 μg/animal injected; for pest or weed control at 0.00016 mg: dose 0.16 μg/animal injected. The essentials: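 Five engorged adult females each get a 1 μl abdominal injection of compound dissolved and diluted in DMSO. Kept 7 days at 28° C./85% rel. hum.; percent activity rates egg laying and egg fertility (0% all fertile, 100% none laid or infertile).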

The subject of experiment [2] is Ctenocephalides felis. As to the kind of experiment: Ctenocephalides felis in-vitro feeding test with fleas (CTECFE oral). The conditions noted are these: 48 hours, read-out: insecticidal feeding activity; for pest or weed control at 4 ppm: dose 4 ppm in citrated cattle blood; for pest or weed control at 0.032 ppm: dose 0.032 ppm in citrated cattle blood; for pest or weed control at 0.16 ppm: dose 0.16 ppm in citrated cattle blood; for pest or weed control at 0.8 ppm: dose 0.8 ppm in citrated cattle blood. The essentials: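 Scored as percent fleas killed (0–100%) 48 hours after feeding began. Compound, dissolved in DMSO and diluted into citrated cattle blood, was offered via a parafilm membrane to roughly 20 adult male and female C. felis at about 37° C.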

Another experiment relates to Spodoptera litura. In words: Insecticidal testing against common cutworm. Type of experiment: in vivo. To be noted: foliar, 144 h, concentration 100 ppm, cabbage leaf dip, second-stage larvae, after 6 days, read-out: pesticidal rate. From the text: Insecticidal Testing Against Common Cutworm (Spodoptera litura)
A further experiment has as its system Plutella xylostella. As to the kind of experiment: Insecticidal testing against diamondback moth. Type of experiment: in vivo. The conditions noted are these: foliar, 144 h, concentration 100 ppm, cabbage leaf dip, third-stage larvae, after 6 days, read-out: pesticidal rate. The text has this:
Insecticidal Testing Against Diamondback Moth (Plutella xylostella)

The next experiment relates to Laodelphax striatellus. In words: Insecticidal testing against small brown planthopper. The class given is in vivo. The conditions noted are these: 144 h, concentration 100 ppm, sprayed rice seedlings, after 6 days, read-out: pesticidal rate. Here is the method:
Insecticidal Testing Against Small Brown Planthopper (Laodelphax striatellus)
An additional test was carried out with 10 small brown planthoppers by preparing an acetone solution of the testing compound diluted to a predetermined concentration, spraying the solution onto rice seedlings and air drying the rice seedlings. The medicament was all used as received. The rice seedlings were placed in a constant-temperature room at 25° C., and the survival rate was investigated after 6 days. The test was carried out by means of one group of 10 pests.

The test system of experiment [3] is Ctenocephalides felis. In words: In vitro contact test with fleas. To be noted: read-out: insecticidal activity; for pest or weed control at 0.2 µg/cm2, 0.2 µg/cm2: dose 0.2 μg/cm^2, dead or moribund fleas after 48 h; for pest or weed control at 1 µg/cm2, 1 µg/cm2: dose 1 μg/cm^2, dead or moribund fleas after 48 h. Put shortly: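 Activity is the percentage of fleas dead or moribund at 48 h, judged by immobility or uncoordinated movement after tapping. Tubes were coated by evaporating acetone solutions (900 ppm gives 5 μg/cm^2), then held 5-10 adult fleas of both sexes at room temperature and ambient humidity.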

Regarding `CC(C)c1ccc(C(=O)N(C)c2cccc(C(=O)Nc3c(I)cc(C(F)(C(F)(F)F)C(F)(F)F)cc3C(F)(F)F)c2F)cc1` [Compound 47], the pest or weed control at 0.0008 mg in experiment [1] was 100%. In addition, in the experiment on Ctenocephalides felis [2], the pest or weed control at 4 ppm was found to be 95%. For the same compound, the pest or weed control at 100 ppm in the experiment on Spodoptera litura, with Plutella xylostella and in the experiment with Laodelphax striatellus was at least 70% in each case. The pest or weed control at 0.2 µg/cm2, 0.2 µg/cm2 with Ctenocephalides felis [3] worked out at 95%. Further, the pest or weed control at 1 µg/cm2, 1 µg/cm2 with Ctenocephalides felis [3] worked out at 95%.
With `CN(C(=O)c1ccc(C(F)(F)F)nc1C(F)(F)F)c1cccc(C(=O)Nc2c(I)cc(C(F)(C(F)(F)F)C(F)(F)F)cc2C(F)(F)F)c1F` [Compound 111], in experiment [1], the pest or weed control at 0.00016 mg came out at 100% and the pest or weed control at 0.0008 mg was 100%. The pest or weed control at 0.0064 ppm in the experiment with Ctenocephalides felis [2] (dose 0.0064 ppm in citrated cattle blood) was determined as 95%. For the same compound, in the experiment on Ctenocephalides felis [2], the pest or weed control at 0.032 ppm is 95%, the pest or weed control at 0.16 ppm came out at 95%, the pest or weed control at 0.8 ppm worked out at 95% and the pest or weed control at 4 ppm worked out at 95%. Moreover, the pest or weed control at 100 ppm with Spodoptera litura is at least 70%. Further, in the experiment on Plutella xylostella, the pest or weed control at 100 ppm was at least 70%. Besides, the pest or weed control at 0.04 µg/cm2, 0.04 µg/cm2 with Ctenocephalides felis [3] (dose 0.04 μg/cm^2, dead or moribund fleas after 48 h) is 95%. In the experiment with Ctenocephalides felis [3], the pest or weed control at 0.2 µg/cm2, 0.2 µg/cm2 was found to be 95% and the pest or weed control at 1 µg/cm2, 1 µg/cm2 came out at 95%.
For `CN(C(=O)c1ccc2c(c1)CCCC2)c1cccc(C(=O)Nc2c(I)cc(C(F)(C(F)(F)F)C(F)(F)F)cc2C(F)(F)F)c1F` [Compound 52], the pest or weed control at 0.0008 mg in experiment [1] was determined as 100%. In addition, the pest or weed control at 4 ppm in the experiment with Ctenocephalides felis [2] was 95%. Besides, the pest or weed control at 100 ppm in the experiment on Spodoptera litura and in the experiment with Plutella xylostella was at least 70% in each case. Further, the pest or weed control at 1 µg/cm2, 1 µg/cm2 with Ctenocephalides felis [3] came to 95%.
Consider `O=C(Nc1cccc(C(=O)Nc2c(I)cc(C(F)(C(F)(F)F)C(F)(F)F)cc2C(F)(F)F)c1F)c1cnc(C(F)(F)F)nc1` [Compound 114], for which the pest or weed control at 0.0008 mg in experiment [1] came out at 100%. In the experiment with Ctenocephalides felis [2], the pest or weed control at 0.16 ppm worked out at 95%, the pest or weed control at 0.8 ppm is 95% and the pest or weed control at 4 ppm came to 95%. In the experiment with Spodoptera litura, the pest or weed control at 100 ppm was at least 70%. Also, the pest or weed control at 100 ppm in the experiment on Plutella xylostella was at least 70%.
For the compound `CN(C(=O)c1cnc(C(F)(F)F)nc1)c1cccc(C(=O)Nc2c(I)cc(C(F)(C(F)(F)F)C(F)(F)F)cc2C(F)(F)F)c1F` [Compound 113], in experiment [1] (dose 0.032 μg/animal injected), the pest or weed control at 32 ng stood at 100%. Moreover, in experiment [1], the pest or weed control at 0.00016 mg amounted to 100% and the pest or weed control at 0.0008 mg amounted to 100%. Further, in the experiment on Ctenocephalides felis [2], the pest or weed control at 0.032 ppm turned out to be 95%, the pest or weed control at 0.16 ppm was 95%, the pest or weed control at 0.8 ppm is 95% and the pest or weed control at 4 ppm was 95%. In addition, the pest or weed control at 100 ppm with Spodoptera litura is at least 70%. Besides, the pest or weed control at 100 ppm in the experiment with Plutella xylostella is at least 70%. In the experiment with Laodelphax striatellus, the pest or weed control at 100 ppm was at least 70%.
Consider `CN(C(=O)c1ccc2c(c1)OCO2)c1cccc(C(=O)Nc2c(I)cc(C(F)(C(F)(F)F)C(F)(F)F)cc2C(F)(F)F)c1F` [Compound 55], for which, in the experiment with Ctenocephalides felis [2], the pest or weed control at 4 ppm came to 95%. Also, the pest or weed control at 100 ppm in the experiment on Spodoptera litura and with Plutella xylostella was at least 70% throughout. Further, in the experiment on Ctenocephalides felis [3], the pest or weed control at 0.2 µg/cm2, 0.2 µg/cm2 was found to be 95%. Further, the pest or weed control at 1 µg/cm2, 1 µg/cm2 in the experiment with Ctenocephalides felis [3] was determined as 95%.
Consider `CN(C(=O)c1ccc(C(N)=O)cc1)c1cccc(C(=O)Nc2c(I)cc(C(F)(C(F)(F)F)C(F)(F)F)cc2C(F)(F)F)c1F` [Compound 48], for which, in experiment [1], the pest or weed control at 0.00016 mg was 100% and the pest or weed control at 0.0008 mg was 100%. In the experiment on Ctenocephalides felis [2], the pest or weed control at 0.16 ppm came out at 95%, the pest or weed control at 0.8 ppm is 95% and the pest or weed control at 4 ppm stood at 95%. The pest or weed control at 100 ppm with Spodoptera litura was at least 70%. For the same compound, the pest or weed control at 100 ppm in the experiment on Plutella xylostella is at least 70%. The pest or weed control at 1 µg/cm2, 1 µg/cm2 with Ctenocephalides felis [3] was found to be 95%.

The record behind these values is patent publication US11696913B2, “Prolonged ectoparasite-controlling agent for animal” (MITSUI CHEMICALS AGRO, INC., priority 2017, dated 2023).
